The values that follow come from patent US8043815B2, “Methods for analysis of PDEF and survivin as interconnected cancer biomarkers and targets for personalized medicine” (Health Research, Inc., priority 2007, dated 2011).

Holding throughout (assay type): cell-based
In test [1] the test system is PDEF-negative ovarian cancer cell lines. The test can be described thus: Western blot of PDEF and survivin expression in PDEF-negative ovarian cancer cell lines treated with methylation inhibitor. As to the method: FIGS. 6A and 6B provide photographic representations of results obtained from Western blotting analysis of PDEF expression in PDEF-negative ovarian cancer cell lines treated with and without 5-aza-2-deoxycytidine (5-Aza-dC) for 5 days at 1 μM (FIG. 6A) or different concentrations of 5-Aza-dC (FIG. 6B).
We analyzed whether the loss of PDEF expression in cancer tissues during cancer progression is the result of epigenetic methylation of the PDEF gene. Four PDEF-negative ovarian cancer cell lines were treated with and without the methylation inhibitor 5-aza-2-deoxycytidine (5-Aza-dC) for 5 days at 1 μM (FIG. 6A) or different concentration of 5-Aza-dC (FIG. 6B). Cells were then lysed and analyzed for PDEF expression by Western blots.
(In general: A western blot detects proteins with antibodies after separation by electrophoresis.)

Test [2] concerns HCT116 parental colon cancer cells. The test can be described thus: Western blot of survivin and PDEF expression in HCT116 parental colon cancer cells. The settings on record: treated for 3 days. As to the method: (§1) FIG. 7 provides a photographic representation of results obtained from differential modulation of survivin and PDEF expression in an HCT116 parental colon cancer cell line, versus in an HCT116 cell line in which both the DNMT1 and DNMT3b DNA methyltransferases have been knocked out. Both HCT116 parental and double knockout (DNMT1^−/−/DNMT3B^−/−) colon cancer cell lines were treated with and without the methylation inhibitor 5-Aza-dC for 3 days as shown. Cells were lysed and analyzed for the expression of survivin and PDEF by western blots. Actin is the internal control of protein loading.
(§2) Since it is know that the survivin gene is not methylated, despite our identification of a CpG island in the survivin gene, this Example further supports that demethylation of PDEF via a DNA methylation inhibitor can facilitate downregulation of survivin expression.

In test [3] the test system is HCT116 colon cancer cells with double knockout (DKO) of DNMT1 and DNMT3b. Description: Western blot of survivin and PDEF expression in HCT116 DNMT1/DNMT3b double knockout cells. The conditions noted are these: treated for 3 days. As to the method:
as §1, §2

Test [4] has as its system MDA-MB-231 breast cancer cells. The test can be described thus: Cell growth and cell death of MDA-MB-231 cells after sequential MSA / Zebularine treatment (digital images). The conditions noted are these: images 48 hours after new medium replacement. Here is the method: FIG. 8 provides a photographic representation of results showing a synergistic effect of DNA methylation inhibitors in combination with DNA methylation inducers/promoters on massive cancer cell death. Sequential treatment of MDA-MB-231 breast cancer cells with methylseleninic acid (MSA, a DNA methylation inducer/promoter) for 48 hours and Zebularine (a DNA methylation inhibitor) for 24 hours alone or in combination as shown. Growth medium with drugs was replaced with complete new medium without drugs 24 hour after Zebularine treatment. Images were then taken using a digital camera 48 hours after new medium replacement.
Sequential treatment of MDA-MB-231 breast cancer cells with methylseleninic acid (MSA, a DNA methylation inducer/promoter) for 48 hours and Zebularine (a DNA methylation inhibitor) for 24 hours alone or in combination as shown. Growth medium with drugs was replaced with complete new medium without drugs 24 hour after Zebularine treatment. Images were then taken using a digital camera 48 hours after new medium replacement.

Consider `Nc1ncn([C@H]2C[C@H](O)[C@@H](CO)O2)c(=O)n1` [5-Aza-dC, 5-aza-2-deoxycytidine], for which the “PDEF expression by western blots” value in test [1] (four PDEF-negative ovarian cancer cell lines, 5 days at 1 μM or different concentration) is reported as “two of the four ovarian cancer cell lines showed restored expression of PDEF”; in test [2], “induces PDEF expression”; in test [3], “no effect”. Besides, the “expression of survivin by Western blots” value in test [1] (ovarian cancer cell lines with restored PDEF expression, different concentrations of 5-Aza-dC, 5 days (FIG. 6B)) was “reduces or eliminates the expression of survivin”. Further, the “survivin expression by western blots” value in test [2] is “decreases survivin expression”; in test [3], “no effect”.

For `C[Se](=O)O` [MSA, methylseleninic acid], the cell growth inhibition entry in test [4] (MSA 48 hours, Zebularine 24 hours, alone) was “only moderately inhibit cell growth”. Also, in test [4] (alone or sequential combination (MSA then Zebularine)), the “induction of cell death” value is “without induction of cell death”.
